Assay results reported in patent publication US20240400555A1 (Initial Therapeutics, Inc., priority 2023, published 2024).
pIC50: −log10 of the molar value.

The compounds below were run on MV-4-11 cells (assay: Cell Viability Assay in MV-4-11 Cells). Settings: Homo sapiens, MV4-11, 72 h, MV-4-11 cells, 72 h, Cell-Titer Glo; read-out: IC50.
Type: cell-based
Outline: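 Luminescent ATP read-out (CellTiter-Glo) after 72 h compound treatment of MV-4-11 leukaemia cells (7,000 per well, IMDM plus 10% FBS). Values expressed relative to DMSO control and derived by four-parameter non-linear regression.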

| SMILES | pIC50 |
| --- | --- |
| O=C(c1ccc(-n2nnc3cccnc32)cc1F)N(c1nccc2sc(-c3nc4ccccn4n3)cc12)[C@@H]1CCCNC1 [Example 450, 2-fluoro-N-[(3R)-3-piperidyl]-N-[2-([1,2,4]triazolo[1,5-a]pyridin-2-yl)thieno[3,2-c]pyridin-4-yl]-4-(triazolo[4,5-b]pyridin-3-yl)benzamide] | 6.52 |
| O=C(c1ccc(Nc2nccc(N3CCCCC3)n2)cc1F)N(c1nccc2cc(F)ccc12)[C@@H]1CCCNC1 [Example 561, (R)-2-fluoro-N-(6-fluoroisoquinolin-1-yl)-4-((4-(piperidin-1-yl)pyrimidin-2-yl)amino)-N-(piperidin-3-yl)benzamide] | 5.92 |
| CCc1nnc(-c2ccc(C(=O)N(c3nccc4scc(Cl)c34)[C@@H]3CCCNC3)nc2)s1 [Example 668, N-(3-chlorothieno[3,2-c]pyridin-4-yl)-5-(5-ethyl-1,3,4-thiadiazol-2-yl)-N-[(3R)-3-piperidyl]pyridine-2-carboxamide] | 6.60 |
| Cc1nc(-c2ccc(C(=O)N(c3nccc4cccc(C)c34)[C@@H]3CCCNC3)c(F)c2)c(N)[nH]1 [Example 389, 4-(5-amino-2-methyl-1H-imidazol-4-yl)-2-fluoro-N-(8-methyl-1-isoquinolyl)-N-[(3R)-3-piperidyl]benzamide] | < 5.00 |
| O=C(c1ccc(-n2nnc3cccnc32)cc1F)N(c1nccc2sc(-c3ccc(B(O)O)cc3)cc12)[C@@H]1CCCNC1 [Example 569, [4-[4-[[2-fluoro-4-(triazolo[4,5-b]pyridin-3-yl)benzoyl]-[(3R)-3-piperidyl]amino]thieno[3,2-c]pyridin-2-yl]phenyl]boronic acid] | 6.24 |
| CC(C)n1nccc1-c1ccc2c(N(C(=O)c3ccc(-n4nnc5cccnc54)cc3F)[C@@H]3CCCNC3)nccc2c1 [Example 439, (R)-4-(3H-[1,2,3]triazolo[4,5-b]pyridin-3-yl)-2-fluoro-N-(6-(1-isopropyl-1H-pyrazol-5-yl)isoquinolin-1-yl)-N-(piperidin-3-yl)benzamide] | 5.92 |
| Cc1cccc2ccnc(N(C(=O)c3ccc(Nc4nccc(CN5CCNCC5)n4)cc3F)[C@@H]3CCCNC3)c12 [Example 686, (R)-2-fluoro-N-(8-methylisoquinolin-1-yl)-4-((4-(piperazin-1-ylmethyl)pyrimidin-2-yl)amino)-N-(piperidin-3-yl)benzamide] | 6.34 |
| Cn1cc(-c2ccc(C(=O)N(c3nccc4sc(/C=C/C(N)=O)cc34)[C@@H]3CCCNC3)c(F)c2)nn1 [Example 486, N-[2-[(E)-3-amino-3-oxo-prop-1-enyl]thieno[3,2-c]pyridin-4-yl]-2-fluoro-4-(1-methyltriazol-4-yl)-N-[(3R)-3-piperidyl]benzamide] | < 5.00 |
| Cn1cc(-c2ccc(C(=O)N(c3nccc4sc(-c5cccnc5)cc34)[C@@H]3CCCNC3)c(F)c2)nn1 [Example 508, 2-fluoro-4-(1-methyltriazol-4-yl)-N-[(3R)-3-piperidyl]-N-[2-(3-pyridyl)thieno [3,2-c]pyridin-4-yl] benzamide] | 6.52 |
| COc1cc(C(=O)N(c2nccc3cc(Cl)cc(C)c23)[C@@H]2CCCNC2)ccc1-c1nnc(C)s1 [Example 706, (R)—N-(6-chloro-8-methylisoquinolin-1-yl)-3-methoxy-4-(5-methyl-1,3,4-thiadiazol-2-yl)-N-(piperidin-3-yl)benzamide] | 6.38 |
| O=C(c1ccc(-n2nnc3cccnc32)cc1F)N(c1nccc2sc(-c3ccn(CCO)n3)cc12)[C@@H]1CCCNC1 [Example 418, (R)-4-(3H-[1,2,3]triazolo[4,5-b]pyridin-3-yl)-2-fluoro-N-(2-(1-(2-hydroxyethyl)-1H-pyrazol-3-yl)thieno[3,2-c]pyridin-4-yl)-N-(piperidin-3-yl)benzamide] | 6.44 |
| Cn1cc(-c2ccc(C(=O)N(c3nccc4cc(-c5cccc(O)c5)ccc34)[C@@H]3CCCNC3)c(F)c2)nn1 [Example 495, (R)-2-fluoro-N-(6-(3-hydroxyphenyl)isoquinolin-1-yl)-4-(1-methyl-1H-1,2,3-triazol-4-yl)-N-(piperidin-3-yl)benzamide] | 6.18 |
| Cc1nnc(-c2ccc(C(=O)N(c3nccc4sc(-c5ccncc5)cc34)[C@@H]3CCCNC3)c(F)c2)s1 [Example 593, 2-fluoro-4-(5-methyl-1,3,4-thiadiazol-2-yl)-N-[(3R)-3-piperidyl]-N-[2-(4-pyridyl)thieno[3,2-c]pyridin-4-yl]benzamide] | 6.11 |

Now those with a higher pIC50, led by results:

| pIC50 | SMILES |
| --- | --- |
| 6.62 | CC(=O)c1ccc(-c2cc3c(N(C(=O)c4ccc(-n5nnc6cccnc65)cc4F)[C@@H]4CCCNC4)nccc3s2)cc1 [Example 603, N-[2-(4-acetylphenyl)thieno[3,2-c]pyridin-4-yl]-2-fluoro-N-[(3R)-3-piperidyl]-4-(triazolo[4,5-b]pyridin-3-yl) benzamide] |
| 6.64 | O=C(c1ccc(-n2nnc3cccnc32)cc1F)N(c1nccc2ccccc12)[C@@H]1CCCNC1 [Example 313, (R)-4-(3H-[1,2,3]triazolo[4,5-b]pyridin-3-yl)-2-fluoro-N-(isoquinolin-1-yl)-N-(piperidin-3-yl)benzamide] |
| 6.82 | Cc1cc(C)c2c(N(C(=O)c3ccc(-c4nnc(C)s4)cn3)[C@@H]3CCCNC3)nccc2c1 [Example 701, (R)—N-(6,8-dimethylisoquinolin-1-yl)-5-(5-methyl-1,3,4-thiadiazol-2-yl)-N-(piperidin-3-yl)picolinamide] |
| 6.85 | Cc1cc(Cl)cc2ccnc(N(C(=O)c3ccc(-c4cn(C)nn4)cc3Cl)[C@@H]3CCCNC3)c12 [Example 816, (R)-2-chloro-N-(6-chloro-8-methylisoquinolin-1-yl)-4-(1-methyl-1H-1,2,3-triazol-4-yl)-N-(piperidin-3-yl)benzamide] |
| 6.85 | COCCc1nnc(-c2ccc(C(=O)N(c3nccc4scc(C)c34)[C@@H]3CCCNC3)c(F)c2)s1 [Example 634, (R)-2-fluoro-4-(5-(2-methoxyethyl)-1,3,4-thiadiazol-2-yl)-N-(3-methylthieno[3,2-c]pyridin-4-yl)-N-(piperidin-3-yl)benzamide] |
| 6.85 | Cc1nnc(-c2ccc(C(=O)N(c3nccc4cc(Cl)cc(C)c34)[C@@H]3CCCNC3)nc2)s1 [Example 801, (R)—N-(6-chloro-8-methylisoquinolin-1-yl)-5-(5-methyl-1,3,4-thiadiazol-2-yl)-N-(piperidin-3-yl)picolinamide] |
| 6.92 | Cc1nnc(-c2ccc(C(=O)N(c3nccc4c(Cl)ccc(C)c34)[C@@H]3CCCNC3)cn2)s1 [Example 898, N-(5-chloro-8-methyl-1-isoquinolyl)-6-(5-methyl-1,3,4-thiadiazol-2-yl)-N-[(3R)-3-piperidyl] pyridine-3-carboxamide] |
| 6.92 | Cc1cn(-c2ccc(C(=O)N(c3nccc4scc(C)c34)[C@@H]3CCCNC3)cc2)nn1 [Example 689, (R)-4-(4-methyl-1H-1,2,3-triazol-1-yl)-N-(3-methylthieno[3,2-c]pyridin-4-yl)-N-(piperidin-3-yl)benzamide] |
| 6.97 | Cc1cccc2ccnc(N(C(=O)c3ccc(Nc4ncnc(-c5ccccc5)n4)cc3F)[C@@H]3CCCNC3)c12 [Example 971, (R)-2-fluoro-N-(8-methylisoquinolin-1-yl)-4-(4-phenyl-1,3,5-triazin-2-ylamino)-N-(piperidin-3-yl)benzamide] |
| 7.09 | Cc1nnc(-c2ccc(C(=O)N(c3nccc4scc(C)c34)[C@@H]3CCCNC3)cc2)s1 [Example 798, (R)-4-(5-methyl-1,3,4-thiadiazol-2-yl)-N-(3-methylthieno[3,2-c]pyridin-4-yl)-N-(piperidin-3-yl)benzamide] |
| 7.10 | COC[C@@H]1COCCN1c1ccnc(Nc2ccc(C(=O)N(c3nccc4cccc(C)c34)[C@@H]3CCCNC3)c(F)c2)n1 [Example 943, 2-fluoro-4-(4-((R)-3-(methoxymethyl)morpholino)pyrimidin-2-ylamino)-N-(8-methylisoquinolin-1-yl)-N—((R)-piperidin-3-yl)benzamide] |
| 7.12 | Cc1cccc2ccnc(N(C(=O)c3ccc(-c4cnn(C)c4N)cc3F)[C@@H]3CCCNC3)c12 [Example 388, 4-(5-amino-1-methyl-pyrazol-4-yl)-2-fluoro-N-(8-methyl-1-isoquinolyl)-N-[(3R)-3-piperidyl]benzamide] |
| 7.16 | Cc1cccc2ccnc(N(C(=O)c3ccc(Nc4nccc(N5[C@H](C)COC[C@H]5C)n4)cc3F)[C@@H]3CCCNC3)c12 [Example 939, 4-((4-((3R,5R)-3,5-dimethylmorpholino)pyrimidin-2-yl)amino)-2-fluoro-N-(8-methylisoquinolin-1-yl)-N—((R)-piperidin-3-yl)benzamide] |
| 7.30 | Cc1cccc2ccnc(N(C(=O)c3ccc(-c4cncs4)cc3F)[C@@H]3CCCNC3)c12 [Example 314, (R)-2-fluoro-N-(8-methylisoquinolin-1-yl)-N-(piperidin-3-yl)-4-(thiazol-5-yl) benzamide] |
| 7.41 | Cc1cc(C)c2c(N(C(=O)c3ccc(-c4nnc(C)s4)nc3)[C@@H]3CCCNC3)nccc2c1 [Example 648, (R)—N-(6,8-dimethylisoquinolin-1-yl)-6-(5-methyl-1,3,4-thiadiazol-2-yl)-N-(piperidin-3-yl)nicotinamide] |
| 7.43 | CN(C)C/C=C/C(=O)Nc1cccc(C2CCN(C(=O)N(c3nccc4ccn(C)c34)[C@@H]3CCCNC3)CC2)c1 [Example 304, (R,E)-4-(3-(4-(dimethylamino)but-2-enamido)phenyl)-N-(1-methyl-1H-pyrrolo[2,3-c]pyridin-7-yl)-N-(piperidin-3-yl)piperidine-1-carboxamide] |
| 7.49 | O=C(c1ccc(Nc2ncccn2)cc1)N(c1ncccc1Cl)[C@@H]1CCCNC1 [Example 925, (R)—N-(3-chloropyridin-2-yl)-N-(piperidin-3-yl)-4-(pyrimidin-2-ylamino)benzamide] |
| 7.85 | Cc1cc(F)cc2ccnc(N(C(=O)c3ccc(Nc4ncccn4)cc3F)[C@@H]3CCCNC3)c12 [Example 564, (R)-2-fluoro-N-(6-fluoro-8-methylisoquinolin-1-yl)-N-(piperidin-3-yl)-4-(pyrimidin-2-ylamino)benzamide] |
